Experimental data: article PMC7532004, “Site-specific effects of neurosteroids on GABAA receptor activation and desensitization” (eLife, 2020)
Values joined by “and” are separate entries in the source; they are usually repeats but may differ in a detail not shown here. Equal values may be shown once. Read-outs that look alike come from different tables or passages of the source.

Assays:
α1β3 GABAAR = target: T1, α1β3 GABAAR (UniProt P28472+P62813); test: Two-electrode voltage clamp in Xenopus laevis oocytes, WT receptor; assay type: cell-based; settings: for Potentiation of GABA-elicited currents: 0.3 μM GABA, 10 μM neurosteroid, oocytes; for % of desensitization (reduction of steady-state current): 1 mM GABA, 3β5αP 3 μM, KK148 10 μM, KK150 10 μM, WT
T1 construct: expressed in transfected cells; host or cells: Xenopus laevis oocytes injected with cRNA (α1:β3 5:1)
Protocol: (§1) The wild-type and mutant α1β3 GABAAR were expressed in oocytes from the African clawed frog (Xenopus laevis). Frogs were purchased from Xenopus 1 (Dexter, MI), and housed and cared for in a Washington University Animal Care Facility under the supervision of the Washington University Division of Comparative Medicine. Harvesting of oocytes was conducted under the Guide for the Care and Use of Laboratory Animals as adopted and promulgated by the National Institutes of Health. The animal protocol (No. 20180191) was approved by the Animal Studies Committee of Washington University in St. Louis. The oocytes were injected with a total of 12 ng cRNA. The ratio of cRNAs was 5:1 ratio (α1:β3) to minimize the expression of β3 homomeric receptors. Following injection, the oocytes were incubated in ND96 (96 mM NaCl, 2 mM KCl, 1.8 mM CaCl2, 1 mM MgCl2, 5 mM HEPES; pH 7.4) with supplements (2.5 mM Na pyruvate, 100 U/ml penicillin, 100 μg/ml streptomycin and 50 μg/ml gentamycin) at 16°C for 2 days prior to conducting electrophysiological recordings. The electrophysiological recordings were conducted at room temperature using standard two-electrode voltage clamp. The oocytes were clamped at −60 mV. The chamber (RC-1Z, Warner Instruments, Hamden, CT) was perfused with ND96 at 5–8 ml/min. Solutions were gravity-applied from 30 ml glass syringes with glass luer slips via Teflon tubing. The current responses were amplified with an OC-725C amplifier (Warner Instruments, Hamden, CT), digitized with a Digidata 1200 series digitizer (Molecular Devices), and stored using pClamp (Molecular Devices). Current traces were analyzed with Clampfit (Molecular Devices). […] The stock solution of muscimol was made at 20 mM in ND96 and stored at 4°C. The steroids were dissolved in DMSO at 10–20 mM and stored at room temperature.
The converted current traces were analyzed in the framework of the three-state Resting-Open-Desensitized activation model ([Germann et al., 2019a]; [Germann et al., 2019b]). The model enables analysis and prediction of peak responses using four parameters that characterize the extent of constitutive activity (termed L; L = Resting/Open), affinity of the resting receptor to agonist (KC), affinity of the open receptor to agonist (KO), and the number of agonist binding sites (N). Analysis and prediction of steady-state responses requires an additional parameter, termed Q, that describes the equilibrium between open and desensitized receptors (Q = Open/Desensitized).
The Popen of the peak response is expressed as: Popen,peak=1/1+LΓ and the Popen of the steady-state response as: Popen,steady−state=1/1+1/Q+LΓ where Γ=[(1+[X]/KC)/(1+[X]/KO)]^N
[X]is the concentration of agonist present, and other terms are as described above. In practice, the value of LΓ was calculated using the experimentally determined Popen of the peak response, and then used as a fixed value in estimating Q from Popen,steady-state.
The Pdesensitized was calculated using: Pdesensitized=1/1+Q+QLΓ
Calculated probabilities (e.g. Popen, Pdesentitized) are reported as mean ± SD.

α1(Q242L)β3 GABAAR = α1(Q242L)β3 GABAAR (UniProt P28472+P62813, Q268L); test: [3H]muscimol binding to HEK cell membranes, intersubunit site mutant; design: expressed in transfected cells; host or cells: HEK293S GnTI- (ATCC CRL-3022), transient; species or system rat α1, human β3; settings: for Emax (% of control) of [3H]muscimol binding: 100% means no effect
Protocol: (§2) The human α1 and β3 GABAAR subunits were subcloned into pcDNA3 for molecular manipulations and cRNA synthesis. Using QuikChange Site-Directed Mutagenesis Kit (Agilent Technologies, Santa Clara, CA), a FLAG tag was first added to the α1 subunit then an 8xHis tag was added to generate the following His-FLAG tag tandem ([…]), inserted between the fourth and fifth residues of the mature peptide. The α1 and β3 subunits were then transferred into the pcDNA4/TO and pcDNA5/TO vectors (Thermo Fisher Scientific), respectively, for tetracycline inducible expression. Transient expression was done using the GABAAR subunits rat α1FLAG ([Ueno et al., 1996]) and human β3 obtained from Geoffrey White (Neurogen, Branford, CT), each were subcloned into pcDNA3 for molecular manipulations and cRNA synthesis. Point mutations were generated using the QuikChange Site-Directed Mutagenesis Kit (Agilent) and the coding region was fully sequenced prior to use. The cDNAs were linearized with XbaI (NEB Labs, Ipswich, MA), and the cRNAs were generated using T7 mMessage mMachine (Ambion, Austin, TX).
(§3) [^3H]muscimol-binding assays were performed using a previously described method ([Chen et al., 2019]). […] Assay tubes were incubated for 1 hr on ice in the dark. […] Membranes were collected on Whatman/GF-C glass filter papers using a Brandel cell harvester (Gaithersburg, MD). To perform [^3H]muscimol binding isotherms, 100 μg/ml aliquots of membrane protein were incubated with 0.3 nM–1 μM [^3H]muscimol for 1 hr on ice in the dark. The specific activity for [^3H]muscimol concentrations from 30 nM to 1 μM was reduced to 2 Ci/mmol by dilution with nonradioactive muscimol. The membranes were collected on Whatman/GF-B glass filter papers using a vacuum manifold. […] For [^3H]muscimol-binding experiments examining competitive interactions between neurosteroids, the combined neurosteroids (0.3 μM 3α5αP or 3 μM KK148 ±30 μM KK150) or the same volume of dimethyl sulfoxide (DMSO) were added to the membranes which were then incubated with 3 nM [^3H]muscimol on ice for 1 hr. Time courses of neurosteroid [^3H]muscimol binding enhancement were examined by adding 10 µM of neurosteroids (3α5αP, 3β5αP) to membranes that had been fully equilibrated with 3 nM [^3H]muscimol for 1 hr on ice; binding was then measured as a function of time at 1, 3, 10, 30, 60 min. The membranes were collected on Whatman/GF-B glass filter papers using a vacuum manifold. Radioactivity bound to the filters was measured by liquid scintillation spectrometry using Bio-Safe II (Research Products International, Mount Prospect, IL).

α1β3(Y284F) GABAAR = target: T2, α1β3(Y284F) GABAAR (UniProt P28472+P62813, Y309F); test: [3H]muscimol binding to HEK cell membranes, β3 intrasubunit site mutant; design: species or system rat α1, human β3; settings: for Emax (% of control) of [3H]muscimol binding: 100% means no effect
T2 construct: expressed in transfected cells; host or cells: HEK293S GnTI- (ATCC CRL-3022), transient
Protocol: as §2, §3

α1(V256S)β3 GABAAR = α1(V256S)β3 GABAAR (UniProt P28472+P62813, V283S); test: Two-electrode voltage clamp in Xenopus laevis oocytes, V256S mutant; assay type: cell-based; design: expressed in transfected cells; host or cells: Xenopus laevis oocytes injected with cRNA; settings: for % of desensitization (reduction of steady-state current): 1 mM GABA
Protocol: as §1

Compound | Potentiation of GABA-elicited currents (α1β3 GABAAR) | EC50 (α1(Q242L)β3 GABAAR) [nM] | Hill slope for modulation of [3H]muscimol binding (α1(Q242L)β3 GABAAR; α1(Q242L)β3, 3 nM [3H]muscimol) | Emax (% of control) of [3H]muscimol binding (α1(Q242L)β3 GABAAR; α1(Q242L)β3, 3 nM [3H]muscimol) | Hill slope for modulation of [3H]muscimol binding (α1β3(Y284F) GABAAR; α1β3(Y284F), 3 nM [3H]muscimol) | Emax (% of control) of [3H]muscimol binding (α1β3(Y284F) GABAAR; α1β3(Y284F), 3 nM [3H]muscimol) | % of desensitization (reduction of steady-state current) (α1β3 GABAAR) | % of desensitization (reduction of steady-state current) (α1(V256S)β3 GABAAR) | other results
CC(=O)[C@H]1CC[C@H]2[C@@H]3CC[C@H]4C[C@H](O)CC[C@]4(C)[C@H]3CC[C@]12C [3α5αP, allopregnanolone] | potentiation | 2660 | 1.16 ± 0.37 | **159.8 ± 10.9 % of control | 0.87 ± 0.16 | 342.3 ± 13.9 % of control | – | – | Decrease of enhancement of [3H]muscimol binding by mutation (α1(Q242L)β3 GABAAR; β3(+)–α1(-) intersubunit site mutation vs WT): ~ 80%; EC50 (α1β3(Y284F) GABAAR): 190 ± 40 nM; Inhibitory effect on steady-state current in the V256S mutant (α1(V256S)β3 GABAAR; 3 μM 3α5αP, 1 mM GABA + 40 μM pentobarbital): eliminated
CC(=O)[C@H]1CC[C@H]2[C@@H]3CC[C@H]4C[C@@H](O)CC[C@]4(C)[C@H]3CC[C@]12C [3β5αP, epi-allopregnanolone] | absence of potentiation | 270 ± 90 | 0.77 ± 0.21 | 204.3 ± 4.5 % of control | – | **148.6 ± 4.9 % of control | ~ 25% and 23.0 ± 2.8% | completely eliminated | Calculated steady-state Pdesensitized (α1β3 GABAAR; 20 nM muscimol + 3 µM 3β5αP): 0.2168; Steady-state Popen (α1β3 GABAAR; 20 nM muscimol + 3 µM 3β5αP): 0.009 ± 0.004; Popen of the steady-state response (α1β3 GABAAR; 1 mM GABA + 3 µM 3β5αP): 0.077 ± 0.013; Sum of (Popen + Pdesensitized) (α1β3 GABAAR; 1 mM GABA + 3 µM 3β5αP): 0.97; Steady-state Pdesensitized (α1β3 GABAAR; 1 mM GABA + 3 µM 3β5αP, Resting-Open-Desensitized model): 0.892; Effect on peak current amplitude (α1β3 GABAAR; co-application of 3 µM 3β5αP with 1 mM GABA): does not reduce; Effect on decay rate of GABA-elicited currents (α1β3 GABAAR; prolonged co-application of 1 mM GABA + 3 µM 3β5αP): increases
C#CCCO[C@H]1CC[C@H]2[C@@H]3CC[C@H]4CC5(CC[C@]4(C)[C@H]3CC[C@]12C)N=N5 [KK148] | absence of potentiation | – | 1.24 ± 0.12 | 434.5 ± 5.6 % of control | 1.35 ± 0.13 | **357.2 ± 8.1 % of control | 27.2 ± 6.0% | 0% | EC50 (α1(Q242L)β3 GABAAR; α1(Q242L)β3, 3 nM [3H]muscimol, read-out: EC50 for modulation of [3H]muscimol binding): 2200 ± 310 nM; EC50 (α1β3(Y284F) GABAAR; α1β3(Y284F), 3 nM [3H]muscimol, read-out: EC50 for modulation of [3H]muscimol binding): 1790 ± 440 nM
C#CCCO[C@@H]1CC[C@H]2[C@@H]3CC[C@H]4CC5(CC[C@]4(C)[C@H]3CC[C@]12C)N=N5 [KK150] | absence of potentiation | – | – | – | – | – | 2.1 ± 0.7% | – | –
NCc1cc(=O)[nH]o1 [muscimol] | – | – | – | – | – | – | – | – | Peak Popen (α1β3 GABAAR; 20 nM muscimol): 0.012 ± 0.004; Calculated steady-state Pdesensitized (α1β3 GABAAR; 20 nM muscimol alone): 0.1001; Steady-state Popen (α1β3 GABAAR; 20 nM muscimol alone): 0.011 ± 0.004; Bmax of [3H]muscimol binding isotherm (α1(Q242L)β3 GABAAR; α1(Q242L)β3): 9.9 ± 0.6 (P > 0.99 vs. WT) pmol/mg; Kd (α1(Q242L)β3 GABAAR; α1(Q242L)β3, read-out: Kd of [3H]muscimol binding isotherm): 44.3 ± 4.6 nM; Bmax of [3H]muscimol binding isotherm (α1β3(Y284F) GABAAR; α1β3(Y284F)): 10.6 ± 0.9 (P > 0.99 vs. WT) pmol/mg; Kd (α1β3(Y284F) GABAAR; α1β3(Y284F), read-out: Kd of [3H]muscimol binding isotherm): 46.6 ± 3.8 nM
